Test results published in ChEMBL document CHEMBL3885861, “Open TG-GATES”.

Species on record: Rattus norvegicus
Test: Open TG-GATES - Regimen: Daily Repeat
Type: toxicity, organism-based, Sprague-Dawley
Design: regimen Daily Repeat, gender Male, age 6 weeks
Conditions: in vivo, po, 15 mg/kg, route gavage, dose level Low; for APTT / Bas / Eos / Fbg / Hb / Ht / Lym / MCH / MCHC / MCV / Mono / Neu / PT / Plat / RBC / Ret / WBC: tissue Blood; for KIDNEY_L / KIDNEY_R / KIDNEY_TOTAL: tissue Kidney; for LIVER: tissue Liver; for A/G / ALP / ALT / AST / BUN / CRE / Ca / Cl / DBIL / GLC / IP / K / LDH / Na / PL / RALB / TBIL / TC / TG / TP / gamma-GTP: tissue Plasma

SMILES: CC(C)C(=O)Nc1ccc([N+](=O)[O-])c(C(F)(F)F)c1 [FLUTAMIDE]
- TERMINAL_BW (72 h, time 3 day): 223.1 g
- APTT (72 h, time 3 day): 18.7 s
- Bas (72 h, time 3 day): 0%
- Eos (72 h, time 3 day): 1%
- Fbg (72 h, time 3 day): 224.2 mg/dL
- Hb (72 h, time 3 day): 14 g/dL
- Ht (72 h, time 3 day): 41.8%
- Lym (72 h, time 3 day): 75.2%
- MCH (72 h, time 3 day): 21.6 pg
- MCHC (72 h, time 3 day): 33.6%
- MCV (72 h, time 3 day): 64.4 fL
- Mono (72 h, time 3 day): 3.2%
- Neu (72 h, time 3 day): 19.4%
- PT (72 h, time 3 day): 12.3 s
- Plat (72 h, time 3 day): 119.4 x10_4/uL
- RBC (72 h, time 3 day): 649.4 x10_4/ul
- Ret (72 h, time 3 day): 5.7%
- WBC (72 h, time 3 day): 84.8 x10_2/uL
- KIDNEY_L (72 h, time 3 day): 1 g
- KIDNEY_R (72 h, time 3 day): 1 g
- KIDNEY_TOTAL (72 h, time 3 day): 1.9 g
- LIVER (72 h, time 3 day): 11.2 g
- A/G (72 h, time 3 day): 1.8
- ALP (72 h, time 3 day): 847 IU/L
- ALT (72 h, time 3 day): 40 IU/L
- AST (72 h, time 3 day): 66.8 IU/L
- BUN (72 h, time 3 day): 14.4 mg/dL
- CRE (72 h, time 3 day): 0.4 mg/dL
- Ca (72 h, time 3 day): 10.9 mg/dL
- Cl (72 h, time 3 day): 104.2 meq/L
- DBIL (72 h, time 3 day): 0.1 mg/dL
- GLC (72 h, time 3 day): 216.8 mg/dL
- IP (72 h, time 3 day): 7.1 mg/dL
- K (72 h, time 3 day): 3.9 meq/L
- LDH (72 h, time 3 day): 177.6 IU/L
- Na (72 h, time 3 day): 140.8 meq/L
- PL (72 h, time 3 day): 157.4 mg/dL
- RALB (72 h, time 3 day): 3.6 g/dL
- TBIL (72 h, time 3 day): 0.2 mg/dL
- TC (72 h, time 3 day): 86.6 mg/dL
- TG (72 h, time 3 day): 86.2 mg/dL
- TP (72 h, time 3 day): 5.6 g/dL
- gamma-GTP (72 h, time 3 day): 1.2 IU/L
- TERMINAL_BW ([…], time 7 day): 248.2 g
- TERMINAL_BW ([…], time 14 day): 294.4 g
- TERMINAL_BW ([…], time 28 day): 340.6 g
- APTT ([…], time 7 day): 19.1 s
- Bas ([…], time 7 day): 0%
- Eos ([…], time 7 day): 1%
- Fbg ([…], time 7 day): 217.8 mg/dL
- Hb ([…], time 7 day): 13.6 g/dL
- Ht ([…], time 7 day): 40.3%
- Lym ([…], time 7 day): 84.6%
- MCH ([…], time 7 day): 20.8 pg
- MCHC ([…], time 7 day): 33.7%
- MCV ([…], time 7 day): 61.6 fL
- Mono ([…], time 7 day): 2%
- Neu ([…], time 7 day): 12.2%
- PT ([…], time 7 day): 12.3 s
- Plat ([…], time 7 day): 124.4 x10_4/uL
- RBC ([…], time 7 day): 654.8 x10_4/ul
- Ret ([…], time 7 day): 4.6%
- WBC ([…], time 7 day): 149.8 x10_2/uL
- APTT ([…], time 14 day): 20.6 s
- Bas ([…], time 14 day): 0%
- Eos ([…], time 14 day): 0.6%
- Fbg ([…], time 14 day): 228.4 mg/dL
- Hb ([…], time 14 day): 14.3 g/dL
- Ht ([…], time 14 day): 41.8%
- Lym ([…], time 14 day): 82.4%
- MCH ([…], time 14 day): 20.9 pg
- MCHC ([…], time 14 day): 34.2%
- MCV ([…], time 14 day): 61.1 fL
- Mono ([…], time 14 day): 2.4%
- Neu ([…], time 14 day): 13.4%
- PT ([…], time 14 day): 12.3 s
- Plat ([…], time 14 day): 104.8 x10_4/uL
- RBC ([…], time 14 day): 684.6 x10_4/ul
- Ret ([…], time 14 day): 3.8%
- WBC ([…], time 14 day): 112.5 x10_2/uL
- APTT ([…], time 28 day): 19.6 s
- Bas ([…], time 28 day): 0%
- Eos ([…], time 28 day): 1.2%
- Fbg ([…], time 28 day): 229.2 mg/dL
- Hb ([…], time 28 day): 15.1 g/dL
- Ht ([…], time 28 day): 42.7%
- Lym ([…], time 28 day): 82%
- MCH ([…], time 28 day): 20 pg
- MCHC ([…], time 28 day): 35.4%
- MCV ([…], time 28 day): 56.4 fL
- Mono ([…], time 28 day): 2.2%
- Neu ([…], time 28 day): 13.6%
- PT ([…], time 28 day): 12.4 s
- Plat ([…], time 28 day): 106.7 x10_4/uL
- RBC ([…], time 28 day): 758.8 x10_4/ul
- Ret ([…], time 28 day): 2.1%
- WBC ([…], time 28 day): 99.2 x10_2/uL
- KIDNEY_L ([…], time 7 day): 1.1 g
- KIDNEY_R ([…], time 7 day): 1.1 g
- KIDNEY_TOTAL ([…], time 7 day): 2.1 g
- KIDNEY_L ([…], time 14 day): 1.2 g
- KIDNEY_R ([…], time 14 day): 1.2 g
- KIDNEY_TOTAL ([…], time 14 day): 2.3 g
- KIDNEY_L ([…], time 28 day): 1.3 g
- KIDNEY_R ([…], time 28 day): 1.2 g
- KIDNEY_TOTAL ([…], time 28 day): 2.5 g
- LIVER ([…], time 7 day): 12.1 g
- LIVER ([…], time 14 day): 13.5 g
- LIVER ([…], time 28 day): 13.8 g
- A/G ([…], time 7 day): 1.5
- ALP ([…], time 7 day): 979.6 IU/L
- ALT ([…], time 7 day): 37.6 IU/L
- AST ([…], time 7 day): 62.6 IU/L
- BUN ([…], time 7 day): 15.8 mg/dL
- CRE ([…], time 7 day): 0.5 mg/dL
- Ca ([…], time 7 day): 10.7 mg/dL
- Cl ([…], time 7 day): 104.2 meq/L
- DBIL ([…], time 7 day): 0.088 mg/dL
- GLC ([…], time 7 day): 214.2 mg/dL
- IP ([…], time 7 day): 7.4 mg/dL
- K ([…], time 7 day): 4.1 meq/L
- LDH ([…], time 7 day): 195.6 IU/L
- Na ([…], time 7 day): 140.6 meq/L
- PL ([…], time 7 day): 145 mg/dL
- RALB ([…], time 7 day): 3.5 g/dL
- TBIL ([…], time 7 day): 0.1 mg/dL
- TC ([…], time 7 day): 74.2 mg/dL
- TG ([…], time 7 day): 83.2 mg/dL
- TP ([…], time 7 day): 5.8 g/dL
- gamma-GTP ([…], time 7 day): 1.2 IU/L
- A/G ([…], time 14 day): 1.5
- ALP ([…], time 14 day): 728 IU/L
- ALT ([…], time 14 day): 33.4 IU/L
- AST ([…], time 14 day): 57.2 IU/L
- BUN ([…], time 14 day): 12.8 mg/dL
- CRE ([…], time 14 day): 0.5 mg/dL
- Ca ([…], time 14 day): 10.7 mg/dL
- Cl ([…], time 14 day): 104 meq/L
- DBIL ([…], time 14 day): 0.09 mg/dL
- GLC ([…], time 14 day): 200.4 mg/dL
- IP ([…], time 14 day): 6.3 mg/dL
- K ([…], time 14 day): 3.9 meq/L
- LDH ([…], time 14 day): 137.8 IU/L
- Na ([…], time 14 day): 141.2 meq/L
- PL ([…], time 14 day): 149 mg/dL
- RALB ([…], time 14 day): 3.4 g/dL
- TBIL ([…], time 14 day): 0.1 mg/dL
- TC ([…], time 14 day): 77.6 mg/dL
- TG ([…], time 14 day): 96.4 mg/dL
- TP ([…], time 14 day): 5.7 g/dL
- gamma-GTP ([…], time 14 day): 0.6 IU/L
- A/G ([…], time 28 day): 1.4
- ALP ([…], time 28 day): 460.2 IU/L
- ALT ([…], time 28 day): 34 IU/L
- AST ([…], time 28 day): 54.4 IU/L
- BUN ([…], time 28 day): 16.8 mg/dL
- CRE ([…], time 28 day): 0.5 mg/dL
- Ca ([…], time 28 day): 10.3 mg/dL
- Cl ([…], time 28 day): 103.6 meq/L
- DBIL ([…], time 28 day): 0.07 mg/dL
- GLC ([…], time 28 day): 226.2 mg/dL
- IP ([…], time 28 day): 6.1 mg/dL
- K ([…], time 28 day): 3.4 meq/L
- LDH ([…], time 28 day): 126.8 IU/L
- Na ([…], time 28 day): 141.4 meq/L
- PL ([…], time 28 day): 147 mg/dL
- RALB ([…], time 28 day): 3.6 g/dL
- TBIL ([…], time 28 day): 0.1 mg/dL
- TC ([…], time 28 day): 83.4 mg/dL
- TG ([…], time 28 day): 51.2 mg/dL
- TP ([…], time 28 day): 6.2 g/dL
- gamma-GTP ([…], time 28 day): 0.4 IU/L
